Each structure is given as a SMILES string.

Format in all cases: in vitro ADME
The nature of data set [1]: Assay 3. Fecal Incubation Stability. The settings on record: 1 or 10 μM, human fecal slurry, anaerobic.
Data set [2] can be described thus: Assay 2. Stability in Simulated Intestinal Fluid (SIF). Conditions: 1 μM, 37° C., SIF pH 6.7 with pancreatin. The method in brief:
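Degradation rate measured by LC/MS after acetonitrile quench of timed aliquots, starting at T0. Test compound 1 μM in simulated intestinal fluid (pH 6.7 phosphate buffer, FaSSIF powder, pancreatin), shaken at 37 °C.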

Data set [3] is described as follows: Assay 1. Stability in Simulated Gastric Fluid (SGF). The settings on record: 1 μM, 37° C., SGF pH 1.6 with pepsin. An outline of the steps: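 Simulated gastric fluid, prepared fresh as NaCl buffer at pH 1.6 with 0.1 mg/mL pepsin and FaSSIF powder, received test compound to 1 μM final and was held at 37 °C. LC/MS of acetonitrile-quenched samples, taken immediately and then periodically, gave degradation rates.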

As to `CCC(=O)O[C@H]1OC[C@@H](OC(=O)CC)[C@@H](OC(=O)CC)[C@H]1OC(=O)CC` [Compound 133, (2R,3R,4R,5R)-3,4,5-tris(propanoyloxy)oxan-2-yl Propanoate], the “Assay 3 (% Remaining at 24 h)” value in data set [1] is listed as “A (A: <25% of the tested compound remaining)”. Also, in data set [2], the “Assay 2 (SIF) (% @ Remaining 4 hours)” value is “A (A: <25% of the tested compound remaining)”. In addition, the “Assay 1 (SGF) (% Remaining @ 1 hours)” value in data set [3] is listed as “C (C: >75% of the tested compound remaining)”.

For `CCC(=O)O[C@@H]1[C@@H](OC(=O)CC)[C@H](C)O[C@@H](OC(=O)/C=C/c2c[nH]c3ccccc23)[C@@H]1OC(=O)CC` [Compound 134, (2S,3R,4R,5S,6S)-6-methyl-3,4,5-tris(propanoyloxy)oxan-2-yl (2E)-3-(1H-indol-3-yl)prop-2-enoate], the “Assay 3 (% Remaining at 24 h)” value in data set [1] is “A (A: <25% of the tested compound remaining)”. The “Assay 2 (SIF) (% @ Remaining 4 hours)” value in data set [2] is given as “B (B: 25-75% of the tested compound remaining)”. Further, in data set [3], the “Assay 1 (SGF) (% Remaining @ 1 hours)” value was “C (C: >75% of the tested compound remaining)”.

Turning to `CCC(=O)O[C@@H]1[C@@H](OC(=O)CC)[C@H](OC(=O)Cc2c[nH]c3ccccc23)OC[C@@H]1OC(=O)CC` [Compound 135, (3S,4S,5R,6S)-6-{[2-(1H-indol-3-yl)acetyl]oxy}-4,5-bis(propanoyloxy)oxan-3-yl Propanoate], the “Assay 3 (% Remaining at 24 h)” value in data set [1] is “A (A: <25% of the tested compound remaining)”. The “Assay 2 (SIF) (% @ Remaining 4 hours)” value in data set [2] is on record as “A (A: <25% of the tested compound remaining)”. Also, in data set [3], the “Assay 1 (SGF) (% Remaining @ 1 hours)” value was “C (C: >75% of the tested compound remaining)”.

Consider `CCC(=O)O[C@@H]1OC[C@@H](OC(=O)CC)[C@@H](OC(=O)CC)[C@H]1OC(=O)CC` [Compound 136, (2S,3R,4R,5R)-3,4,5-tris(propanoyloxy)oxan-2-yl Propanoate], for which the “Assay 3 (% Remaining at 24 h)” value in data set [1] is reported as “A (A: <25% of the tested compound remaining)”. Further, in data set [2], the “Assay 2 (SIF) (% @ Remaining 4 hours)” value is reported as “A (A: <25% of the tested compound remaining)”. Moreover, in data set [3], the “Assay 1 (SGF) (% Remaining @ 1 hours)” value is given as “C (C: >75% of the tested compound remaining)”.

Turning to `CCC(=O)O[C@@H]1[C@H](OC(=O)CC)COC(O)[C@@H]1OC(=O)CC` (stereo partly drawn) [Compound 137, (3R,4R,5R)-2-hydroxy-4,5-bis(propanoyloxy)oxan-3-yl Propanoate], the “Assay 3 (% Remaining at 24 h)” value in data set [1] was “B (B: 25-75% of the tested compound remaining)”. In addition, the “Assay 2 (SIF) (% @ Remaining 4 hours)” value in data set [2] is “B (B: 25-75% of the tested compound remaining)”. Also, the “Assay 1 (SGF) (% Remaining @ 1 hours)” value in data set [3] is “C (C: >75% of the tested compound remaining)”.

As to `CCC(=O)O[C@H]1[C@H](OC(=O)Cc2c[nH]c3ccccc23)OC[C@@H](OC(=O)CC)[C@H]1OC(=O)CC` [Compound 138, (2S,3R,4R,5R)-2-{[2-(1H-indol-3-yl)acetyl]oxy}-4,5-bis(propanoyloxy)oxan-3-yl Propanoate], in data set [1], the “Assay 3 (% Remaining at 24 h)” value is recorded as “A (A: <25% of the tested compound remaining)”. Further, in data set [2], the “Assay 2 (SIF) (% @ Remaining 4 hours)” value is given as “A (A: <25% of the tested compound remaining)”. Further, the “Assay 1 (SGF) (% Remaining @ 1 hours)” value in data set [3] is on record as “C (C: >75% of the tested compound remaining)”.

Regarding `CCC(=O)O[C@@H]1[C@@H](OC(=O)CC)[C@H](C)O[C@H](OC(=O)/C=C/c2c[nH]c3ccccc23)[C@@H]1OC(=O)CC` [Compound 139, (2R,3R,4R,5S,6S)-6-methyl-3,4,5-tris(propanoyloxy)oxan-2-yl (2E)-3-(1H-indol-3-yl)prop-2-enoate], the “Assay 3 (% Remaining at 24 h)” value in data set [1] is “B (B: 25-75% of the tested compound remaining)”. For the same compound, the “Assay 2 (SIF) (% @ Remaining 4 hours)” value in data set [2] is listed as “A (A: <25% of the tested compound remaining)”. Moreover, the “Assay 1 (SGF) (% Remaining @ 1 hours)” value in data set [3] is “B (B: 25-75% of the tested compound remaining)”.

In the case of `CCC(=O)O[C@@H]1[C@@H](OC(=O)CC)[C@@H](OC(=O)Cc2c[nH]c3ccccc23)OC[C@@H]1OC(=O)CC` [Compound 140, (3S,4S,5R,6R)-6-{[2-(1H-indol-3-yl)acetyl]oxy}-4,5-bis(propanoyloxy)oxan-3-yl Propanoate], the “Assay 3 (% Remaining at 24 h)” value in data set [1] was “A (A: <25% of the tested compound remaining)”. For the same compound, the “Assay 2 (SIF) (% @ Remaining 4 hours)” value in data set [2] was “A (A: <25% of the tested compound remaining)”. Further, the “Assay 1 (SGF) (% Remaining @ 1 hours)” value in data set [3] is recorded as “C (C: >75% of the tested compound remaining)”.

Regarding `CCC(=O)OC[C@H]1O[C@H](OC(=O)CCc2c[nH]c3ccccc23)[C@H](OC(=O)CC)[C@@H](OC(=O)CC)[C@@H]1OC(=O)CC` [Compound 141, [(2R,3R,4S,5R,6R)-6-{[3-(1H-indol-3-yl)propanoyl]oxy}-3,4,5-tris(propanoyloxy)oxan-2-yl]methyl Propanoate], the “Assay 3 (% Remaining at 24 h)” value in data set [1] is given as “A (A: <25% of the tested compound remaining)”. In addition, the “Assay 2 (SIF) (% @ Remaining 4 hours)” value in data set [2] is recorded as “A (A: <25% of the tested compound remaining)”. The “Assay 1 (SGF) (% Remaining @ 1 hours)” value in data set [3] is “C (C: >75% of the tested compound remaining)”.

For `CCC(=O)OC[C@H]1O[C@@H](OC(=O)Cc2c[nH]c3ccccc23)[C@H](OC(=O)CC)[C@@H](OC(=O)CC)[C@@H]1OC(=O)CC` [Compound 143, [(2R,3R,4S,5R,6S)-6-{[2-(1H-indol-3-yl)acetyl]oxy}-3,4,5-tris(propanoyloxy)oxan-2-yl]methyl Propanoate], the “Assay 3 (% Remaining at 24 h)” value in data set [1] was “A (A: <25% of the tested compound remaining)”. For the same compound, the “Assay 2 (SIF) (% @ Remaining 4 hours)” value in data set [2] was “A (A: <25% of the tested compound remaining)”. Moreover, the “Assay 1 (SGF) (% Remaining @ 1 hours)” value in data set [3] is reported as “C (C: >75% of the tested compound remaining)”.

In the case of `CCC(=O)OC[C@H]1O[C@@H](OC(=O)CCc2c[nH]c3ccccc23)[C@H](OC(=O)CC)[C@@H](OC(=O)CC)[C@@H]1OC(=O)CC` [Compound 144, [(2R,3R,4S,5R,6S)-6-{[3-(1H-indol-3-yl)propanoyl]oxy}-3,4,5-tris(propanoyloxy)oxan-2-yl]methyl Propanoate], the “Assay 3 (% Remaining at 24 h)” value in data set [1] is given as “A (A: <25% of the tested compound remaining)”. Also, the “Assay 2 (SIF) (% @ Remaining 4 hours)” value in data set [2] is reported as “A (A: <25% of the tested compound remaining)”. The “Assay 1 (SGF) (% Remaining @ 1 hours)” value in data set [3] was “C (C: >75% of the tested compound remaining)”.

Take `CCC(=O)O[C@@H]1[C@@H](OC(=O)CC)[C@@H](OC(=O)CC)C(O)O[C@H]1C` (stereo partly drawn) [Compound 145, (3R,4R,5S,6S)-2-hydroxy-6-methyl-4,5-bis(propanoyloxy)oxan-3-yl Propanoate]: the “Assay 3 (% Remaining at 24 h)” value in data set [1] was “C (C: >75% of the tested compound remaining)”. Further, in data set [2], the “Assay 2 (SIF) (% @ Remaining 4 hours)” value was “A (A: <25% of the tested compound remaining)”. For the same compound, in data set [3], the “Assay 1 (SGF) (% Remaining @ 1 hours)” value was “C (C: >75% of the tested compound remaining)”.

Regarding `CCC(=O)OC[C@H]1O[C@H](OC(=O)Cc2c[nH]c3ccccc23)[C@H](OC(=O)CC)[C@@H](OC(=O)CC)[C@@H]1OC(=O)CC` [Compound 146, [(2R,3R,4S,5R,6R)-6-{[2-(1H-indol-3-yl)acetyl]oxy}-3,4,5-tris(propanoyloxy)oxan-2-yl]methyl Propanoate], the “Assay 3 (% Remaining at 24 h)” value in data set [1] is “A (A: <25% of the tested compound remaining)”. Further, in data set [2], the “Assay 2 (SIF) (% @ Remaining 4 hours)” value was “A (A: <25% of the tested compound remaining)”. For the same compound, the “Assay 1 (SGF) (% Remaining @ 1 hours)” value in data set [3] was “C (C: >75% of the tested compound remaining)”.

As to `CCC(=O)O[C@@H]1[C@@H](OC(=O)CC)[C@H](C)O[C@@H](OC(=O)Cc2c[nH]c3ccccc23)[C@@H]1OC(=O)CC` [Compound 147, (2S,3R,4R,5S,6S)-2-{[2-(1H-indol-3-yl)acetyl]oxy}-6-methyl-4,5-bis(propanoyloxy)oxan-3-yl Propanoate], the “Assay 3 (% Remaining at 24 h)” value in data set [1] was “A (A: <25% of the tested compound remaining)”. In addition, the “Assay 2 (SIF) (% @ Remaining 4 hours)” value in data set [2] was “A (A: <25% of the tested compound remaining)”. Besides, the “Assay 1 (SGF) (% Remaining @ 1 hours)” value in data set [3] is “C (C: >75% of the tested compound remaining)”.

As to `CCC(=O)O[C@@H]1[C@@H](OC(=O)CC)[C@@H](OC(=O)Cc2c[nH]c3ccccc23)OC[C@H]1OC(=O)CC` [Compound 149, (2R,3R,4S,5R)-2-{[2-(1H-indol-3-yl)acetyl]oxy}-4,5-bis(propanoyloxy)oxan-3-yl Propanoate], the “Assay 3 (% Remaining at 24 h)” value in data set [1] is given as “A (A: <25% of the tested compound remaining)”. In addition, the “Assay 2 (SIF) (% @ Remaining 4 hours)” value in data set [2] is listed as “A (A: <25% of the tested compound remaining)”. For the same compound, the “Assay 1 (SGF) (% Remaining @ 1 hours)” value in data set [3] is listed as “C (C: >75% of the tested compound remaining)”.

Turning to `CCC(=O)O[C@@H]1[C@@H](OC(=O)CC)[C@@H](OC(=O)CCc2c[nH]c3ccccc23)OC[C@@H]1OC(=O)CC` [Compound 158, (2R,3R,4S,5S)-3,4,5-tris(propanoyloxy)oxan-2-yl 3-(1H-indol-3-yl)propanoate], the “Assay 3 (% Remaining at 24 h)” value in data set [1] was “A (A: <25% of the tested compound remaining)”. In addition, the “Assay 2 (SIF) (% @ Remaining 4 hours)” value in data set [2] was “A (A: <25% of the tested compound remaining)”. In data set [3], the “Assay 1 (SGF) (% Remaining @ 1 hours)” value was “C (C: >75% of the tested compound remaining)”.

For `O=C(Cc1c[nH]c2ccccc12)O[C@H]1OC[C@H](OC(=O)Cc2c[nH]c3ccccc23)[C@H](OC(=O)Cc2c[nH]c3ccccc23)[C@H]1OC(=O)Cc1c[nH]c2ccccc12` [Compound 180, (2R,3R,4S,5S)-3,4,5-tris({[2-(1H-indol-3-yl)acetyl]oxy})oxan-2-yl 2-(1H-indol-3-yl)acetate], the “Assay 3 (% Remaining at 24 h)” value in data set [1] is reported as “A (A: <25% of the tested compound remaining)”. Moreover, the “Assay 2 (SIF) (% @ Remaining 4 hours)” value in data set [2] is recorded as “A (A: <25% of the tested compound remaining)”. Further, in data set [3], the “Assay 1 (SGF) (% Remaining @ 1 hours)” value was “B (B: 25-75% of the tested compound remaining)”.

On to `CO[C@H]1O[C@H](COC(C)=O)[C@@H](OC(C)=O)[C@H](OC(C)=O)[C@@H]1OC(C)=O` [Compound 193, (2R,3R,4S,5S,6S)-2-(acetoxymethyl)-6-methoxytetrahydro-2H-pyran-3,4,5-triyl Triacetate], for which the “Assay 3 (% Remaining at 24 h)” value in data set [1] is given as “B (B: 25-75% of the tested compound remaining)”. Further, in data set [2], the “Assay 2 (SIF) (% @ Remaining 4 hours)” value was “C (C: >75% of the tested compound remaining)”. Also, in data set [3], the “Assay 1 (SGF) (% Remaining @ 1 hours)” value was “C (C: >75% of the tested compound remaining)”.

These data come from patent US10953027B2, “Active agents and methods of their use for the treatment of metabolic disorders and nonalcoholic fatty liver disease” (Flagship Pioneering Innovations V, Inc., priority 2018, dated 2021).
